What was measured:
Assay in all cases: CA Inhibition Assay
Conditions in all cases: pH 7.5; 4 °C
[1] = molecular target: Carbonic anhydrase 12 (Homo sapiens, UniProt O43570)
Protocol: (§1) An applied photophysics stopped-flow instrument has been used for assaying the CA catalyzed CO2 hydration activity. […] The CO2 concentrations ranged from 1.7 to 17mM for the determination of the kinetic parameters and inhibition constants. […] The uncatalyzed rates were determined in the same manner and subtracted from the total observed rates. Stock solutions of inhibitor (0.1mM) were prepared in distilled-deionized water and dilutions up to 0.01nM were done thereafter with distilled deionized water.

[2] = molecular target: Carbonic anhydrase 2 (Homo sapiens, UniProt P00918)
Protocol: as §1

[3] = molecular target: Carbonic anhydrase 1 (Homo sapiens, UniProt P00915)
Chain of Carbonic anhydrase 1 (P00915 whole entry): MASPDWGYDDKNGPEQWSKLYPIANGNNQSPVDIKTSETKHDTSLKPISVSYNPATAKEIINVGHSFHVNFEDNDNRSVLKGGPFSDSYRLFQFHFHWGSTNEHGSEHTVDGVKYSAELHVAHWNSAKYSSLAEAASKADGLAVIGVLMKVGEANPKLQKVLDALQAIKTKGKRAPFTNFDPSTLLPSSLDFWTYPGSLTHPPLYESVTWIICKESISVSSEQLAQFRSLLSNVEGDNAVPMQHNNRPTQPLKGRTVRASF
Protocol: as §1

Chain of Carbonic anhydrase 12 (O43570 whole entry): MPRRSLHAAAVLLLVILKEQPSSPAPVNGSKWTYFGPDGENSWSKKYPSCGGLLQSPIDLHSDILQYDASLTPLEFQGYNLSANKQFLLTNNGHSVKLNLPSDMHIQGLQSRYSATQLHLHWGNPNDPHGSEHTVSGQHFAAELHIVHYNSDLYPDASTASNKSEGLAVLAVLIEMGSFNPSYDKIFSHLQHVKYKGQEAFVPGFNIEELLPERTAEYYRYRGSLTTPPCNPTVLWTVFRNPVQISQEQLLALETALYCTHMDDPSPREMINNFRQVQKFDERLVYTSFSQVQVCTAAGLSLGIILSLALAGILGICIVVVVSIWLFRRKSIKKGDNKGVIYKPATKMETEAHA

Row | Structure (SMILES) | Ki [1] | Ki [2] | Ki [3]
1 | Cc1cc(=O)oc2cc3ccccc3cc12 [4-Methyl-2H-benzo[g]chromen-2-one (5)] | 3.3 µM | > 200 µM | 8.2 µM
2 | Cc1cc(=O)oc2c1ccc1ccccc12 [4-Methyl-2H-benzo[h]chromen-2-one (4)] | 5.5 µM | > 200 µM | 9 µM
3 | Cc1cc(=O)oc2cc(O)ccc12 [4-Methyl-7-hydroxycoumarin] | 4.3 µM | > 200 µM | 4.8 µM
4 | Cc1cc(=O)oc2c(O)c(O)ccc12 [7,8-Dihydroxy-4-methyl-2H-chromen-2-one (3)] | 6.6 µM | > 200 µM | 8.7 µM
5 | Cc1cc(=O)oc2cc(O)cc(O)c12 [Coumarin derivative, 1b] | 6.4 µM | – | 8.4 µM

Source: BindingDB's records for doi:10.3109/14756366.2013.777334 (S.G.S.I.T.S., 2014)
